Like-named read-outs stand apart in the source and are kept apart here.
Assays:
[1] = molecular target: FLNA pentapeptide of SEQ ID NO: 1 (Bn-VAKGL) (Homo sapiens, UniProt P21333); assay: FITC-NLX-based FLNA screening assay (inhibition of FITC-naloxone binding to Bn-VAKGL on streptavidin plates); settings: for inhibition at 0.01 µM / inhibition at 0.1 µM / inhibition at 1 µM / Percent Binding Inhibition: 10 nM FITC-NLX
mu opiate receptor (MOR) = assay: MOR agonist activity using [35S]GTPγS binding assay in striatal membranes; type: biochemical
Outline: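 Striatal membranes (200 μg) were preincubated 5 min at 30 °C in HEPES pH 7.5 with 100 mM NaCl, 1 mM MgCl2 and 0.5 nM [35S]GTPγS, then 5 min more with 0.1–10 μM compound. Gαo was immunoprecipitated and bound radioactivity counted by scintillation.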

[2] = read-out: Percent Binding Inhibition, FLNA-binding compound 0.01 μM
[3] = read-out: Percent Binding Inhibition, FLNA-binding compound 0.1 μM
[4] = read-out: Percent Binding Inhibition, FLNA-binding compound 1 μM
[5] = Series B, 0.1 μM compound, relative to DAMGO
[6] = Series B, 0.1 μM compound, [35S]GTPγS binding to Gαo, striatal membranes
[7] = Series B, 1 μM compound + 1 μM β-FNA
[8] = Series B, 1 μM compound + β-FNA, relative to DAMGO + BFNA
[9] = Series B, 1 μM compound, relative to DAMGO
[10] = Series B, 1 μM compound, [35S]GTPγS binding to Gαo, striatal membranes
[11] = Series C-1, 0.1 μM compound, relative to DAMGO
[12] = Series C-1, 0.1 μM compound, [35S]GTPγS binding to Gαo, striatal membranes
[13] = Series C-1, 1 μM compound + 1 μM β-FNA
[14] = Series C-1, 1 μM compound + β-FNA, relative to DAMGO + BFNA
[15] = Series C-1, 1 μM compound, relative to DAMGO
[16] = Series C-1, 1 μM compound, [35S]GTPγS binding to Gαo, striatal membranes
[17] = FLNA-binding compound 0.01 μM, read-out: Percent Binding Inhibition
[18] = FLNA-binding compound 0.1 μM, read-out: Percent Binding Inhibition
[19] = FLNA-binding compound 1 μM, read-out: Percent Binding Inhibition
[20] = Series C-2, 0.1 μM compound, relative to DAMGO
[21] = Series C-2, 0.1 μM compound, [35S]GTPγS binding to Gαo, striatal membranes
[22] = Series C-2, 1 μM compound + 1 μM β-FNA
[23] = Series C-2, 1 μM compound + β-FNA, relative to DAMGO + BFNA
[24] = Series C-2, 1 μM compound, relative to DAMGO
[25] = Series C-2, 1 μM compound, [35S]GTPγS binding to Gαo, striatal membranes

How did the “Binding to FLNA (conclusion in words)” value ([1]; preliminary study) turn out when C=CCN1CCC2(CC1)OCCN2S(=O)(=O)c1ccc(C)cc1 [Compound 10] was run?
The value was “bind well to FLNA”.

What about the “MOR agonist activity, FLNA-Binding Compound as Agonist 0.1 μM (preliminary study)” value (mu opiate receptor (MOR); 0.1 μM, average of two runs) of the same molecule?
Its value is 163.1%.

What about the “MOR agonist activity, FLNA-Binding Compound as Agonist 1 μM + βNFA (preliminary study)” value (mu opiate receptor (MOR); 1 μM + βNFA, average of two runs) of the same molecule?
The value was 60.4%.

And the “MOR agonist activity, FLNA-Binding Compound as Agonist 1 μM (preliminary study)” value (mu opiate receptor (MOR); 1 μM, average of two runs)?
Its value is 191.8%.

And the “MOR agonist activity (conclusion in words)” value (mu opiate receptor (MOR); preliminary study)?
The value was “MOR agonists”.

COc1c2c(cc3c1C(CC(=O)CCc1ccc(F)cc1)[N+](C)(C)CC3)OCO2 (centres unmarked) [Compound B0018] was tested. Which inhibition at 0.01 µM [1, 2] did it give?
The inhibition at 0.01 µM was 37.2%.

And the inhibition at 0.1 µM [1, 3]?
The inhibition at 0.1 µM was 43.7%.

And the inhibition at 1 µM [1, 4]?
The inhibition at 1 µM was 47.6%.

And the “% DAMGO (0.1 μM)” value (mu opiate receptor (MOR); [5])?
Its value is 70.3%.

And the “MOR agonist activity, percent [35S]GTPγS binding at the stated compound concentration” value (from here on “MOR agonist activity, percent”) (mu opiate receptor (MOR); [6])?
The value was 118.8%.

And the “MOR agonist activity, percent” value (mu opiate receptor (MOR); [7])?
Its value is 45.6%.

And the “% DAMGO + BFNA” value (mu opiate receptor (MOR); [8])?
The value was 69.1%.

And the “% DAMGO (1 μM)” value (mu opiate receptor (MOR); [9])?
Its value is 53.5%.

What about the “MOR agonist activity, percent” value (mu opiate receptor (MOR); [10]) of the same molecule?
Its value is 143.0%.

Which inhibition at 0.01 µM [1, 2] does the source give for COc1ccc(C(=O)N2CCOC23CCN(S(=O)(=O)c2ccc(OC)cc2)CC3)cc1 [Compound C0019] here?
Its inhibition at 0.01 µM is 30.1%.

What about the inhibition at 0.1 µM [1, 3] of the same molecule?
Its inhibition at 0.1 µM is 38.2%.

And the inhibition at 1 µM [1, 4]?
Its inhibition at 1 µM is 43.6%.

And the “% DAMGO (0.1 μM)” value (mu opiate receptor (MOR); [11])?
Its value is 59.1%.

And the “Concentration of FLNA-Binding Compound as Agonist 0.1 μM” value (mu opiate receptor (MOR); [12])?
Its value is 104.4%.

And the “Concentration of FLNA-Binding Compound as Agonist 1 μM + BFNA” value (mu opiate receptor (MOR); [13])?
Its value is 52.8%.

And the “% DAMGO + BFNA” value (mu opiate receptor (MOR); [14])?
The value was 80.4%.

And the “% DAMGO (1 μM)” value (mu opiate receptor (MOR); [15])?
Its value is 68.1%.

And the “Concentration of FLNA-Binding Compound as Agonist 1 μM” value (mu opiate receptor (MOR); [16])?
Its value is 176.6%.

With COc1ccc(OCC(O)CN2CCCc3ccccc32)cc1 (centres unmarked) [Compound A0067] as the molecule, how does the “Percent Binding Inhibition” value ([1]; FLNA-binding compound 0.01 μM) read?
The value was 32.7%.

And the “Percent Binding Inhibition” value ([1]; FLNA-binding compound 0.1 μM)?
Its value is 39.1%.

And the “Percent Binding Inhibition” value ([1]; FLNA-binding compound 1 μM)?
Its value is 44.3%.

What about the “MOR agonist activity ([35S]GTPγS binding), FLNA-Binding Compound as Agonist 0.1 μM” value (mu opiate receptor (MOR); 0.1 μM compound) of the same molecule?
Its value is 170.8%.

And the “% DAMGO (0.1 μM)” value (mu opiate receptor (MOR); 0.1 μM compound relative to DAMGO)?
Its value is 99.2%.

And the “MOR agonist activity ([35S]GTPγS binding), FLNA-Binding Compound as Agonist 1 μM” value (mu opiate receptor (MOR); 1 μM compound)?
Its value is 254.4%.

And the “MOR agonist activity ([35S]GTPγS binding), FLNA-Binding Compound as Agonist 1 μM + BFNA” value (mu opiate receptor (MOR); 1 μM compound + 1 μM β-funaltrexamine)?
Its value is 33.9%.

And the “% DAMGO + BFNA” value (mu opiate receptor (MOR); 1 μM compound + BFNA relative to DAMGO + BFNA)?
The value was 98.3%.

What about the “% DAMGO (1 μM)” value (mu opiate receptor (MOR); 1 μM compound relative to DAMGO) of the same molecule?
The value was 115.8%.

COc1ccc(CCC(O)CC2c3c(cc4c(c3OC)OCO4)CCN2C)cc1 (centres unmarked) [Compound B0048] was tested. Which inhibition at 0.01 µM [1, 17] did it give?
Its inhibition at 0.01 µM is 34.7%.

And the inhibition at 0.1 µM [1, 18]?
The inhibition at 0.1 µM was 41.9%.

What about the inhibition at 1 µM [1, 19] of the same molecule?
The inhibition at 1 µM was 43.9%.

What about the “% DAMGO (0.1 μM)” value (mu opiate receptor (MOR); [5]) of the same molecule?
Its value is 104.8%.

What about the “MOR agonist activity, percent” value (mu opiate receptor (MOR); [6]) of the same molecule?
The value was 185.1%.

And the “MOR agonist activity, percent” value (mu opiate receptor (MOR); [7])?
The value was 78.5%.

What about the “% DAMGO + BFNA” value (mu opiate receptor (MOR); [8]) of the same molecule?
Its value is 298.5%.

What about the “% DAMGO (1 μM)” value (mu opiate receptor (MOR); [9]) of the same molecule?
Its value is 87.8%.

And the “MOR agonist activity, percent” value (mu opiate receptor (MOR); [10])?
The value was 223.4%.

How did the inhibition at 0.01 µM [1, 2] turn out when CC(=O)c1ccc(S(=O)(=O)N2CCC3(CC2)OCCN3S(=O)(=O)c2ccc(C(C)=O)cc2)cc1 [Compound C0011] was run?
Its inhibition at 0.01 µM is 37.6%.

And the inhibition at 0.1 µM [1, 3]?
Its inhibition at 0.1 µM is 41.4%.

And the inhibition at 1 µM [1, 4]?
The inhibition at 1 µM was 46%.

And the “% DAMGO (0.1 μM)” value (mu opiate receptor (MOR); [11])?
The value was 126.8%.

What about the “Concentration of FLNA-Binding Compound as Agonist 0.1 μM” value (mu opiate receptor (MOR); [12]) of the same molecule?
The value was 217.0%.

And the “Concentration of FLNA-Binding Compound as Agonist 1 μM + BFNA” value (mu opiate receptor (MOR); [13])?
Its value is 19.0%.

What about the “% DAMGO + BFNA” value (mu opiate receptor (MOR); [14]) of the same molecule?
Its value is 36.5%.

And the “% DAMGO (1 μM)” value (mu opiate receptor (MOR); [15])?
The value was 114.3%.

What about the “Concentration of FLNA-Binding Compound as Agonist 1 μM” value (mu opiate receptor (MOR); [16]) of the same molecule?
Its value is 305.0%.

What about the “% DAMGO (0.1 μM)” value (mu opiate receptor (MOR); [20]) of the same molecule?
The value was 126.8%.

And the “MOR agonist activity, percent” value (mu opiate receptor (MOR); [21])?
Its value is 217.0%.

What about the “MOR agonist activity, percent” value (mu opiate receptor (MOR); [22]) of the same molecule?
The value was 19.0%.

What about the “% DAMGO + BFNA” value (mu opiate receptor (MOR); [23]) of the same molecule?
The value was 36.5%.

And the “% DAMGO (1 μM)” value (mu opiate receptor (MOR); [24])?
Its value is 114.3%.

And the “MOR agonist activity, percent” value (mu opiate receptor (MOR); [25])?
The value was 305.0%.

What does the source list for COc1ccc(S(=O)(=O)N2CCOC23CCN(C(=O)OC(C)(C)C)CC3)cc1 [Compound C0043]?
inhibition at 0.01 µM [1, 17]: 43.9%; inhibition at 0.1 µM [1, 18]: 51.3%; inhibition at 1 µM [1, 19]: 58%; % DAMGO (0.1 μM) (mu opiate receptor (MOR); [20]): 103.8%; MOR agonist activity, percent [35S]GTPγS binding at the stated compound concentration (mu opiate receptor (MOR); [21]): 175.4%; MOR agonist activity, percent [35S]GTPγS binding at the stated compound concentration (mu opiate receptor (MOR); [22]): 83.3%; % DAMGO + BFNA (mu opiate receptor (MOR); [23]): 501.8%; % DAMGO (1 μM) (mu opiate receptor (MOR); [24]): 110.9%; MOR agonist activity, percent [35S]GTPγS binding at the stated compound concentration (mu opiate receptor (MOR); [25]): 242.6%

Which results are given for COC(=O)c1ccc(S(=O)(=O)N2CCC3(CC2)OCCN3S(=O)(=O)c2ccc(C(=O)OC)cc2)cc1 [Compound C0028]?
inhibition at 0.01 µM [1, 17]: 32.2%; inhibition at 0.1 µM [1, 18]: 36.6%; inhibition at 1 µM [1, 19]: 43.3%; % DAMGO (0.1 μM) (mu opiate receptor (MOR); [11]): 55.6%; Concentration of FLNA-Binding Compound as Agonist 0.1 μM (mu opiate receptor (MOR); [12]): 93.9%; Concentration of FLNA-Binding Compound as Agonist 1 μM + BFNA (mu opiate receptor (MOR); [13]): 78.4%; % DAMGO + BFNA (mu opiate receptor (MOR); [14]): 472.3%; % DAMGO (1 μM) (mu opiate receptor (MOR); [15]): 60.5%; Concentration of FLNA-Binding Compound as Agonist 1 μM (mu opiate receptor (MOR); [16]): 132.4%

— patent US10363239B2, “Method for inhibiting growth of cancer cells” (Pain Therapeutics, Inc., priority 2013, dated 2019)
